The text below walks through data of patent US10278971B2, “Fluorocyclopentenylcytosine methods of use” (Rexahn Pharmaceuticals, Inc., priority 2015, dated 2019).

Holding throughout (assay type): cell-based, human
One test concerns A549. The test can be described thus: Cell cycle distribution and apoptosis by flow cytometry (PI, Annexin V). The method, then:
(§1) The effect of RX-3117 on cell cycle regulation and cell death in human non-small cell lung cancer (NSCLC) cell lines A549 (adenocarcinoma), SW1573 (alveolar carcinoma) and SW1573/G- (SW1573 cell line resistant to gemcitabine) and H460 (large cell carcinoma) was assessed. The A549 and H460 cell lines were obtained from American Type Culture Collection (Manassas, Va., USA). The SW1573 cell line, obtained from Dr. Johan van Rijn (see Keiser et al., Cancer Research, 49:2988-2993 (1989)), also served as the parental cell line for SW1573/G-. A549, SW1573, and SW1573/G- and H460 were kept in exponential growth in T25 flasks (Greiner Bio-One GmbH, Frickenhausen, Germany) and cultured in Dulbecco's minimal essential medium (DMEM) or RPMI 1640 (A549) supplemented with 10% heat-inactivated fetal bovine serum (FBS) 1% streptomycin and penicillin 20 mM HEPES and maintained in 37° C. water saturated atmospheres of 5% CO2. For the cell cycle distribution, 1.5×10^5 cells were seeded in a T25 flask (Greiner Bio-One GmbH) and cultured for 72 hours after which 1 μM of RX-3117 was added and incubated for 24 hours. The cells were then harvested. After the treatment, the medium was collected in a 15 ml tube (Greiner Bio-One GmbH). The cells were washed with ice cold PBS and trypsinized (Lonza) at 37° C. The collected medium was used to inactivate trypsin of the corresponding sample and again collected in the 15 ml tube. The cells were centrifuged with the standard centrifuge program, 5 minutes at 4° C. and […]. The medium was removed, pellet washed with 1 ml PBS/0.01% BSA and centrifuged. After removal of the supernatant, the cells were fixed with 1 ml 70% ethanol and incubated at −20° C. for at least 24 hours. Subsequently, the cells were centrifuged, washed with 1 ml PBS/0.1% BSA and transferred to a FALCON FACS tube (BD, Franklin Lakes, N.J., USA). The cells were centrifuged, and the supernatant was removed followed by the addition of 0.5 μg propidium iodide (PI) (Sigma, St. Louis, Mo., USA), 0.1% trisodium citrate (Riedel-de Haen, Sigma-Aldrich Laborchemikalien GmbH, St. Louis, Mo., USA), 0.1% Triton X-100™ (Merck) and 0.1 mg/ml RNase (Sigma) (PI solution) to the samples. Subsequently, for at least 15 minutes, the cells were incubated on ice with the PI solution to stain the DNA before starting the analysis. The cells stained with the PI solution were analyzed by FACSCalibur™ (BD Biosciences, Mount View, Calif., USA). Data was analyzed with CellQuest™ Pro software.
(§2) Cell cycle distribution and apoptosis were analyzed by plating cells in flat bottom 6 well plates (Greiner Bio-One GmbH, Frickenhausen, Germany) at the density of 5,000 cells and allowed to attach for 24 h. Thereafter cytotoxic concentrations of 5×IC50 were added. The exposure time was 24 h and 48 h and for comparison the control group was included. At each time point total amount of adherent and floating cells were harvested in round-bottom FALCON tubes (BD, Franklin Lakes, N.J., USA). After centrifugation, cell pellets were resuspended in 1.0 ml propidium iodide (PI) solution (50 ug/ml PI, 0.1% sodium citrate 0.1% Triton X-100, 0.1 mg/ml ribonuclease A) or 10 ul Annexin V (cat#31490014, Immunotools) and left on ice for 30 minutes. Subsequently, samples were analyzed using FACSCalibur (BD Biosciences, Mount View, Calif., USA). For data analysis CELLQuest™ software was carried out, using gates on DNA histograms to estimate the amount of cells in sub-G1 phase (apoptotic cells).

The test system of test [1] is SW1573. Described as above. Here is the method:
as §1, §2

Test [2] deals with SW1573. The test can be described thus: Clonogenic assay, radiosensitizing effect. The method, then: Exponential growing A2780, SW1573, A549, H460 and SW1573/G-cells were exposed to 1 μM RX-3117 or untreated (control) for 24 h and irradiated with single doses γ-radiation (0-6 Gy) using a ^60Co source (Gammacell 200, Atomic Energy of Canada, Ltd). Subsequently, 500 cells/T25 flasks were plated and allowed to form colonies. After ten days colonies were fixed with 100% ethanol and stained with 10% Giemsa stain solution (Merck Chemicals BV, Amsterdam, the Netherlands) for colonies counting. Plating efficiency (PE) was calculated by dividing the number of colonies formed through the number of cells plated and normalized for cytotoxicity induced by control. To illustrate the effect of RX-3117 on radiation, dose modifying factor (DMF) was calculated as described earlier (Bijnsdorp I V, van den Berg J, Kuipers G K, Wedekind L E, Slotman B J, van Rijn J, Lafleur M V M and Sminia P: Radiosensitizing potential of the selective cyclooygenase-2 (COX-2) inhibitor meloxicam on human glioma cells. J Neurooncol 85: 25-31, 2007).

The subject of the next test is PCFT. The test is described as follows: PCFT mediated transport of radiolabeled MTX. As to conditions: CEM cells, 24 hr; RX-3117 29.6 μM; DAC positive control. The source says: In this study, the following cell lines were used: (1) CCRF-CEM cells and its MTX resistant variant CEM-MTX, characterized by a deficiency of the reduced folate carrier (RFC) (Jansen G., et al., JBC 273 (1998) 30189-30198). The PCFT gene in CEM cells is highly methylated. (Gonen N., et al., BBRC 376 (2008) 787-92.); (2) CEM cells cultured in RPMI medium with 10% fetal bovine serum (FBS); and (3) A549 and SW1573 non-small cell lung cancer (NSCLC) and A2780 ovarian cancer cell lines cultured in DMEM medium with 10% FBS.
MTX transport was measured using radiolabeled MTX in CEM wild type and CEM-MTX cell lines. CEM cells have a high RFC activity. CEM-MTX are completely deficient in RFC-mediated transport. CEM cells have a highly methylated PCFT transporter and a very low PCFT mediated transport (Gonen N., et al., BBRC 376 (2008) 787-92). MTX transport at pH 7.4 is predominantly RFC mediated and less than 2% by PCFT. Folic acid was used to inhibit PCFT mediated transport. […] CEM and CEM-MTX cells were exposed to 29.6 μM RX-3117 and to 0, 19 μM aza-CdR as a positive control. MTX transport was measured after 24 hr to the drugs in a 3 minutes uptake assay using 2 μM [3′,5,′7-3H]-MTX.

Take `Nc1ccn([C@@H]2C(F)=C(CO)[C@@H](O)[C@H]2O)c(=O)n1` [RX-3117, 4-amino-1-((1S,4R,5S)-2-fluoro-4,5-dihydroxy-3-hydroxymethyl-cyclopent-2-enyl)-1H-pyrimidin-2-one]: the “accumulation of cells in the G1 phase” value in the test on A549 (A549, 1 μM, 24 hour exposure) was “induced accumulation”; with SW1573 [1] (SW1573, 1 μM, 24 hour exposure), “induced accumulation”. Further, the “increased accumulation of cells in the G1 phase” value was 20-40% in the test on A549 (A549, 1 μM, 24 hour exposure) and 20-40% in the test with SW1573 [1] (SW1573, 1 μM, 24 hour exposure). The “apoptosis, Annexin V stained cells” value with A549 (A549, 5 μM, 24, 48, 72 and 96 hour exposure) was “induced apoptosis”; with SW1573 [1] (SW1573, 10 μM, 24, 48, 72 and 96 hour exposure) it was “induced apoptosis”. The “apoptosis, PI stained cells in the sub-G1 phase” value with A549 (A549, 5×IC50, 24 and 48 hour exposure) is on record as “induced apoptosis”; in the test with SW1573 [1] (SW1573, 5×IC50, 24 and 48 hour exposure), “induced apoptosis”. Further, the “accumulation of cells in the S-phase” value in the test with A549 (A549, 5×IC50, 24 and 48 hours) is “induced the accumulation”; in the test on SW1573 [1] (SW1573, 5×IC50, 24 and 48 hours), “induced the accumulation”. For the same compound, the cell kill entry in the test on A549 (A549, 24 hour exposure) is listed as “No cell kill”; in the test on A549 (A549, 48 hour exposure), 8%; in the test with SW1573 [1] (SW1573, 24 hour exposure), “No cell kill”; in the test on SW1573 [1] (SW1573, 48 hour exposure) it was 15%. The “accumulation in S phase” value in the test on A549 (A549, 48 hour exposure) is 45%. The “colonies outgrowth, fractionated radio therapy” value in the test with SW1573 [2] (SW1573, 1 μM prior to 5 times 2 Gy) is on record as “lowest colonies outgrowth”. Besides, in the test with SW1573 [2] (SW1573, 5 μM (FIG. 16 legend) pre-incubation 24 h, irradiation), the “dose modifying factor (DMF)” value is 1.5. The “increase of PCFT mediated transport of MTX” value in the test on PCFT is on record as 4 fold.
